The target in this assay is T1, human full-length recombinant PKC βII (Homo sapiens, UniProt P05771).
T1 construct: Active human full-length recombinant PKC βII; purchased Invitrogen GmbH, Darmstadt, Germany
In words: Determination of PKC βII inhibition (Caliper mobility-shift kinase assay, Fluorescein-RFARKGSLRQKNV peptide substrate). Type of assay: biochemical. As to conditions: example compounds at a final concentration of 1.14 μM (±0.15 μM). The essentials:
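Full-length PKC βII (30 ng/ml in pre-dilution) with PS/DAG/Ca2+ activators, pH 7.4; fluorescein peptide and ATP at 3 μM and 120 μM before mixing. Reaction ran 60 min at 32 °C, was EDTA-stopped, and was read by mobility shift. % inhibition came from product/(substrate+product) peak heights, tested at 1.14 μM final.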

The structures appear in SMILES notation.

T1 sequence (P05771 1-673 isoform P05771-2): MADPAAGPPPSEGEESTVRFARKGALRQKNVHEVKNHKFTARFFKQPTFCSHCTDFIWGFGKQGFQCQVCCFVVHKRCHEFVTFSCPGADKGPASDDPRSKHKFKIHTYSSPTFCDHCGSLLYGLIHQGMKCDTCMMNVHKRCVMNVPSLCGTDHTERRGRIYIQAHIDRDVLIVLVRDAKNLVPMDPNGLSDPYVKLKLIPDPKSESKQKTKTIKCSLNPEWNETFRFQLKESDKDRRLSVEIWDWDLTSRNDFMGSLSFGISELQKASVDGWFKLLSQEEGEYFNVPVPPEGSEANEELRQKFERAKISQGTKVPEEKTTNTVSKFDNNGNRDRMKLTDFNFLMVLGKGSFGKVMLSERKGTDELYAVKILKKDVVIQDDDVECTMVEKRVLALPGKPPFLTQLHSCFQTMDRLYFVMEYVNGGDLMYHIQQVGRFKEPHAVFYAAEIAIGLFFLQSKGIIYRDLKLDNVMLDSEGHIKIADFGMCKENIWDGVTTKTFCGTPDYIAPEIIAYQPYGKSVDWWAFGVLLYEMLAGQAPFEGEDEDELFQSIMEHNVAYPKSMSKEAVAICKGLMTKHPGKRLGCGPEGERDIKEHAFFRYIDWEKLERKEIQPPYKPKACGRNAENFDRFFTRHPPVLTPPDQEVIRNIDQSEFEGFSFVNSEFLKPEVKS

One may read the inhibition as the percentage by which the read-out fell short of the control. Turning to `CCCC[C@H]1CN(C(=O)c2cc(-c3ccc(O)c(F)c3)nc3[nH]nc(C)c23)CCN1` [Example 294, ((S)-3-Butyl-piperazin-1-yl)-[6-(3-fluoro-4-hydroxy-phenyl)-3-methyl-1H-pyrazolo[3,4-b]pyridin-4-yl]-methanone], the inhibition at 1.14 µM was found to be 85%.

For the compound `CC[C@H]1CN(C(=O)c2cc(-c3ccc(O)c(F)c3)nc3[nH]nc(C)c23)CCN1` [Example 295, ((S)-3-Ethyl-piperazin-1-yl)-[6-(3-fluoro-4-hydroxy-phenyl)-3-methyl-1H-pyrazolo[3,4-b]pyridin-4-yl]-methanone], the inhibition at 1.14 µM was 94%.

In the case of `Cc1n[nH]c2nc(-c3ccc(O)c(F)c3)cc(C(=O)N3CCNC4CS(=O)(=O)CC43)c12` (centres unmarked) [Example 296, (6,6-Dioxo-octahydro-6lambda6-thieno[3,4-b]pyrazin-1-yl)-[6-(3-fluoro-4-hydroxy-phenyl)-3-methyl-1H-pyrazolo[3,4-b]pyridin-4-yl]-methanone], the inhibition at 1.14 µM worked out at 32%.

`COC(=O)[C@H]1CN(C(=O)c2cc(-c3ccc(O)c(F)c3)nc3[nH]nc(C)c23)CCN1` [Example 297, (R)-4-[6-(3-Fluoro-4-hydroxy-phenyl)-3-methyl-1H-pyrazolo[3,4-b]pyridine-4-carbonyl]-piperazine-2-carboxylic acid methyl ester]: the inhibition at 1.14 µM was 34%.

`COC[C@H]1CN(C(=O)c2cc(-c3ccc(O)c(F)c3)nc3[nH]nc(C)c23)CCN1` [Example 298, [6-(3-Fluoro-4-hydroxy-phenyl)-3-methyl-1H-pyrazolo[3,4-b]pyridin-4-yl]-((R)-3-methoxymethyl-piperazin-1-yl)-methanone]: the inhibition at 1.14 µM was found to be 68%.

As for `Cc1n[nH]c2nc(-c3ccc(O)c(F)c3)cc(C(=O)NC3CC4(CCNCC4)c4ccccc43)c12` (centres unmarked) [Example 299, 6-(3-Fluoro-4-hydroxy-phenyl)-3-methyl-1H-pyrazolo[3,4-b]pyridine-4-carboxylic acid (2,3-dihydro-spiro[1H-indene-1,4′-piperidin]-3-yl)-amide], the inhibition at 1.14 µM turned out to be 92%.

For the compound `Cc1n[nH]c2nc(-c3ccc(O)c(F)c3)cc(C(=O)N3CCNCC3Cc3ccccc3)c12` (centres unmarked) [Example 300, (2-Benzyl-piperazin-1-yl)-[6-(3-fluoro-4-hydroxy-phenyl)-3-methyl-1H-pyrazolo[3,4-b]pyridin-4-yl]-methanone], the inhibition at 1.14 µM stood at 74%.

Take `Cc1n[nH]c2nc(-c3ccc(O)c(F)c3)cc(C(=O)NC3CC4CCC(C3)N4C)c12` (centres unmarked) [Example 301, 6-(3-Fluoro-4-hydroxy-phenyl)-3-methyl-1H-pyrazolo[3,4-b]pyridine-4-carboxylic acid (8-methyl-8-aza-bicyclo[3.2.1]oct-3-yl)-amide]: the inhibition at 1.14 µM was determined as 63%.

For `Cc1n[nH]c2nc(-c3ccc(O)c(F)c3)cc(C(=O)NC3CNC3)c12` [Example 302, 6-(3-Fluoro-4-hydroxy-phenyl)-3-methyl-1H-pyrazolo[3,4-b]pyridine-4-carboxylic acid azetidin-3-ylamide], the inhibition at 1.14 µM is 82%.

Take `Cc1n[nH]c2nc(-c3ccc(O)c(F)c3)cc(C(=O)N3CCNC(C)C3)c12` (centres unmarked) [Example 303, [6-(3-Fluoro-4-hydroxy-phenyl)-3-methyl-1H-pyrazolo[3,4-b]pyridin-4-yl]-(3-methyl-piperazin-1-yl)-methanone]: the inhibition at 1.14 µM came to 93%.

With `Cc1n[nH]c2nc(-c3ccc(O)c(F)c3)cc(C(=O)N3CCC(N)CC3)c12` [Example 304, (4-Amino-piperidin-1-yl)-[6-(3-fluoro-4-hydroxy-phenyl)-3-methyl-1H-pyrazolo[3,4-b]pyridin-4-yl]-methanone], the inhibition at 1.14 µM came to 91%.

On to `Cc1n[nH]c2nc(-c3ccc(O)c(F)c3)cc(C(=O)N[C@@H]3CCCNC3)c12` [Example 305, 6-(3-Fluoro-4-hydroxy-phenyl)-3-methyl-1H-pyrazolo[3,4-b]pyridine-4-carboxylic acid (R)-piperidin-3-ylamide], for which the inhibition at 1.14 µM turned out to be 83%.

`Cc1n[nH]c2nc(-c3ccc(O)c(F)c3)cc(C(=O)N3C[C@H]4CNC[C@H]4C3)c12` [Example 306, [6-(3-Fluoro-4-hydroxy-phenyl)-3-methyl-1H-pyrazolo[3,4-b]pyridin-4-yl]-(3aR,6aS)-hexahydro-pyrrolo[3,4-c]pyrrol-2-yl-methanone]: the inhibition at 1.14 µM was 76%.

`Cc1n[nH]c2nc(-c3ccc(O)c(F)c3)cc(C(=O)N3CCC4CNCC43)c12` (centres unmarked) [Example 308, [6-(3-Fluoro-4-hydroxy-phenyl)-3-methyl-1H-pyrazolo[3,4-b]pyridin-4-yl]-(hexahydro-pyrrolo[3,4-b]pyrrol-1-yl)-methanone]: the inhibition at 1.14 µM was found to be 60%.

As for `Cc1n[nH]c2nc(-c3ccc(O)c(F)c3)cc(C(=O)N[C@H]3C[C@H](N)C3)c12` [Example 309, 6-(3-Fluoro-4-hydroxy-phenyl)-3-methyl-1H-pyrazolo[3,4-b]pyridine-4-carboxylic acid (trans-3-amino-cyclobutyl)-amide], the inhibition at 1.14 µM amounted to 71%.

With `Cc1n[nH]c2nc(-c3ccc(O)c(F)c3)cc(C(=O)N3C[C@H]4CC[C@@H](C3)C4N)c12` (some centres unmarked) [Example 310, (8-Amino-3-aza-bicyclo[3.2.1]oct-3-yl)-[6-(3-fluoro-4-hydroxy-phenyl)-3-methyl-1H-pyrazolo[3,4-b]pyridin-4-yl]-methanone], the inhibition at 1.14 µM turned out to be 91%.

Take `Cc1n[nH]c2nc(-c3ccc(O)c(F)c3)cc(C(=O)N3CCNC[C@@H]3C)c12` [Example 313, [6-(3-Fluoro-4-hydroxy-phenyl)-3-methyl-1H-pyrazolo[3,4-b]pyridin-4-yl]-((S)-2-methyl-piperazin-1-yl)-methanone]: the inhibition at 1.14 µM was determined as 99%.

On to `Cc1n[nH]c2nc(-c3ccc(O)c(F)c3)cc(C(=O)N3CCNC(C(F)(F)F)C3)c12` (centres unmarked) [Example 314, [6-(3-Fluoro-4-hydroxy-phenyl)-3-methyl-1H-pyrazolo[3,4-b]pyridin-4-yl]-(3-trifluoromethyl-piperazin-1-yl)-methanone], for which the inhibition at 1.14 µM was determined as 35%.

For the compound `Cc1n[nH]c2nc(-c3ccc(O)c(F)c3)cc(C(=O)N3CC(N)C3)c12` [Example 315, (3-Amino-azetidin-1-yl)-[6-(3-fluoro-4-hydroxy-phenyl)-3-methyl-1H-pyrazolo[3,4-b]pyridin-4-yl]-methanone], the inhibition at 1.14 µM is 62%.

For `Cc1n[nH]c2nc(-c3ccc(O)c(F)c3)cc(C(=O)NCCC3CCCN3C)c12` (centres unmarked) [Example 316, 6-(3-Fluoro-4-hydroxy-phenyl)-3-methyl-1H-pyrazolo[3,4-b]pyridine-4-carboxylic acid [2-(1-methyl-pyrrolidin-2-yl)-ethyl]-amide], the inhibition at 1.14 µM stood at 51%.

For orientation: % Inhibition means the relative decrease from the control value, in per cent. Regarding `Cc1n[nH]c2nc(-c3ccc(O)c(F)c3)cc(C(=O)NC3CC4CCC(C3)N4C)c12` [Example 318, 6-(3-Fluoro-4-hydroxy-phenyl)-3-methyl-1H-pyrazolo[3,4-b]pyridine-4-carboxylic acid (3R)-8-methyl-8-aza-bicyclo[3.2.1]oct-3-yl)-amide], the “% Inhibition” value was 61%.

Take `Cc1n[nH]c2nc(-c3ccc(O)c(F)c3)cc(C(=O)NC3CCN(C)CC3)c12` [Example 319, 6-(3-Fluoro-4-hydroxy-phenyl)-3-methyl-1H-pyrazolo[3,4-b]pyridine-4-carboxylic acid (1-methyl-piperidin-4-yl)-amide]: the inhibition at 1.14 µM was 59%.

On to `Cc1n[nH]c2nc(-c3ccc(O)c(F)c3)cc(C(=O)N3CCNC[C@@H]3C(C)C)c12` [Example 320, [6-(3-Fluoro-4-hydroxy-phenyl)-3-methyl-1H-pyrazolo[3,4-b]pyridin-4-yl]-((S)-2-isopropyl-piperazin-1-yl)-methanone], for which the inhibition at 1.14 µM came out at 72%.

With `Cc1n[nH]c2nc(-c3ccc(O)c(F)c3)cc(C(=O)N3CCNC[C@H]3Cc3ccccc3)c12` [Example 321, ((R)-2-Benzyl-piperazin-1-yl)-[6-(3-fluoro-4-hydroxy-phenyl)-3-methyl-1H-pyrazolo[3,4-b]pyridin-4-yl]-methanone], the inhibition at 1.14 µM stood at 84%.

On to `Cc1n[nH]c2nc(-c3ccc(O)c(F)c3)cc(C(=O)N3CC[C@@H](C4(N)CC4)C3)c12` [Example 322, [(R)-3-(1-Amino-cyclopropyl)-pyrrolidin-1-yl]-[6-(3-fluoro-4-hydroxy-phenyl)-3-methyl-1H-pyrazolo[3,4-b]pyridin-4-yl]-methanone], for which the inhibition at 1.14 µM is 68%.

For the compound `Cc1n[nH]c2nc(-c3ccc(O)c(F)c3)cc(C(=O)N3CCC4(CNCCO4)C3)c12` (centres unmarked) [Example 323, [6-(3-Fluoro-4-hydroxy-phenyl)-3-methyl-1H-pyrazolo[3,4-b]pyridin-4-yl]-(6-oxa-2,9-diaza-spiro[4.5]dec-2-yl)-methanone], the inhibition at 1.14 µM came to 42%.

For the compound `Cc1n[nH]c2nc(-c3ccc(O)c(F)c3)cc(C(=O)N3CCCC4CNCCC43)c12` (centres unmarked) [Example 324, [6-(3-Fluoro-4-hydroxy-phenyl)-3-methyl-1H-pyrazolo[3,4-b]pyridin-4-yl]-(octahydro-[1,6]naphthyridin-1-yl)-methanone], the inhibition at 1.14 µM came out at 69%.

Regarding `Cc1n[nH]c2nc(-c3ccc(O)c(F)c3)cc(C(=O)N3CCNC[C@H]3C(=O)NC(C)(C)C)c12` [Example 325, (S)-1-[6-(3-Fluoro-4-hydroxy-phenyl)-3-methyl-1H-pyrazolo[3,4-b]pyridine-4-carbonyl]-piperazine-2-carboxylic acid tert-butylamide], the inhibition at 1.14 µM stood at 76%.

With `Cc1n[nH]c2nc(-c3ccc(O)c(F)c3)cc(C(=O)N3CCN[C@@H](C(C)C)C3)c12` [Example 326, [6-(3-Fluoro-4-hydroxy-phenyl)-3-methyl-1H-pyrazolo[3,4-b]pyridin-4-yl]-((S)-3-isopropyl-piperazin-1-yl)-methanone], the inhibition at 1.14 µM is 83%.

These data come from patent US8686150B2 (Sanofi, priority 2011, dated 2014).
